Drawing on patent publication US20060121069A1, “Compositions and methods for treating hair loss using oximyl and hydroxylamino prostaglandins” (Duke University, priority 2000, published 2006), this text covers IC50 for 3 compounds.

The target in the experiment is T1, hFP (Homo sapiens, UniProt P43088).
T1 construct: expressed in transfected cells; host or cells: COS-7 cells, transient transfection with LipofectAMINE; membranes prepared
T1 sequence (P43088 whole entry): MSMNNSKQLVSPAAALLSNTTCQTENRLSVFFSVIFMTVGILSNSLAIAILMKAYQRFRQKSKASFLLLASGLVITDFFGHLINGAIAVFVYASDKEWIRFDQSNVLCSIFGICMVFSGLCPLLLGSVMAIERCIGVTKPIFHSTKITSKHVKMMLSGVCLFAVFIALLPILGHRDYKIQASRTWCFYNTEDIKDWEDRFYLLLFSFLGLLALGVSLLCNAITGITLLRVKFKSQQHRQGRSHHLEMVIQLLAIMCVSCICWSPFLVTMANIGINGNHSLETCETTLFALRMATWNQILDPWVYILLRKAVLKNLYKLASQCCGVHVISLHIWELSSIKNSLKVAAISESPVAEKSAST
Kind of experiment: Radioligand Binding Assay (receptor competition binding, hFP membranes). To be noted: competition against 5 nM (3H) PGF2 on hFP membrane from transfected COS-7 cells; method per Reference Example 1; read-out: IC50 of the Prostaglandin. The method, then:
IC50 of a prostaglandin can be determined relative to PGF2α using the Radioligand Binding Assay. As a control, the IC50 for PGF2α itself should be no lower than 1.0 nM and no higher than 5.0 nM.
In this assay, COS-7 cells are transiently transfected with the hFP recombinant plasmid using LipofectAMINE Reagent. Forty-eight hours later, the tranfected cells are washed with Hank's Balanced Salt Solution (HBSS, without CaCl2, MgCl2, MgSO4, or phenol red). The cells are detached with versene, and HBSS is added. The mixture is centrifuged at 200g for 10 minutes, at 4° C. to pellet the cells. The pellet is resuspended in Phosphate-Buffered Saline-EDTA buffer (PBS; 1 mM EDTA; pH 7.4; 4° C.). The cells are disrupted by nitrogen cavitation (Parr model 4639), at 800 psi, for 15 minutes at 4° C. The mixture is centrifuged at 1000 g for 10 minutes at 4° C. The supernatant is centrifuged at 100,000 g for 60 minutes at 4° C. The pellet is resuspended to 1 mg protein/mL TME buffer (50 mM Tris; 10 mM MgCl2; 1 mM EDTA; pH 6.0; 4° C.) based on protein levels measured using the Pierce BCA Protein Assay kit. The homogenate is mixed for 10 seconds using a Kinematica POLYTRON® (available from KINEMATICA AG, Luzernerstrasse147A CH-6014 Littau, Switzerland). The membrane preparations are then stored at −80° C., until thawed for assay use.
The receptor competition binding assays are developed in a 96 well format. Each well contains […] of hFP membrane, 5 nM (3H) PGF2, and the various competing compounds in a total volume of […]. The plates are incubated at 23° C. for 1 hour. The incubation is terminated by rapid filtration using the Packard Filtermate 196 harvester through Packard UNIFILTER® GF/B filters (available from Packard Instrument Co., Inc. of Downers Grove Ill.) pre-wetted with TME buffer. The filter is washed four times with TME buffer. […] The plates are read on a Packard TOPCOUNT® Microplate Scintillation Counter (also available from Packard Instrument Co., Inc.)
The IC50 is the point on the concentration scale where inhibition reaches its midpoint. `O=C(O)CCCCCC[C@H]1[C@@H](O)C/C(=N/O)[C@@H]1CC[C@@H](O)CSc1ccccc1`: the half-maximal inhibitory concentration (IC50) amounted to 162 nM.

For the compound `CCCCC[C@H](O)/C=C/[C@H]1/C(=N\O)C[C@H](O)[C@@H]1C/C=C\CCCC(=O)O` [Example 1-1], the IC50 was determined as 15 nM.

With `CCCCC[C@H](O)/C=C/[C@H]1C(NO)C[C@H](O)[C@@H]1C/C=C\CCCC(=O)O` (stereo partly drawn) [Example 1-2], the concentration for half-maximal inhibition (IC50) amounted to 150 nM.
